Assay results taken from ChEMBL document CHEMBL1201861, “Genomics of Drug Sensitity in Cancer screening data, Wellcome Trust Sanger Institute”.

Key:
Test in all cases: cells
Conditions in all cases: Homo sapiens
COLO-824 = format: functional, cell-based
Description: SANGER: Inhibition of human COLO-824 cell growth in a cell viability assay.

CP66-MEL = format: functional, cell-based;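 further: growth inhibition of CP66-MEL cells determined in a cell viability assay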
Description: SANGER: Inhibition of human CP66-MEL cell growth in a cell viability assay.

CTV-1 = format: functional, cell-based;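 further: growth inhibition of the cell line, read out with a cell viability assay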
Description: SANGER: Inhibition of human CTV-1 cell growth in a cell viability assay.

CW-2 = format: functional, cell-based;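 further: growth inhibition of CW-2 cells, read out by a cell viability assay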
Description: SANGER: Inhibition of human CW-2 cell growth in a cell viability assay.

D283 Med = format: functional, cell-based
Description: SANGER: Inhibition of human D-283MED cell growth in a cell viability assay.

DB = format: functional, cell-based
Description: SANGER: Inhibition of human DB cell growth in a cell viability assay.

DEL = format: functional, cell-based;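 further: growth inhibition of the human DEL cell line, read out with a cell viability assay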
Description: SANGER: Inhibition of human DEL cell growth in a cell viability assay.

DMS-79 = format: functional, cell-based;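 further: growth inhibition measured with a cell viability assay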
Description: SANGER: Inhibition of human DMS-79 cell growth in a cell viability assay.

GAK = format: functional, cell-based;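 further: cell growth inhibition read out by a cell viability assay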
Description: SANGER: Inhibition of human GAK cell growth in a cell viability assay.

GI-ME-N = format: functional, cell-based;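 further: growth inhibition of human GI-ME-N cells, read out with a cell viability assay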
Description: SANGER: Inhibition of human GI-ME-N cell growth in a cell viability assay.

HEL = format: functional, cell-based;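 further: growth inhibition of HEL cells, read out with a cell viability assay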
Description: SANGER: Inhibition of human HEL cell growth in a cell viability assay.

HH = format: functional, cell-based
Description: SANGER: Inhibition of human HH cell growth in a cell viability assay.

KALS-1 = format: functional, cell-based;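 further: growth inhibition of KALS-1 cells, determined with a cell viability assay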
Description: SANGER: Inhibition of human KALS-1 cell growth in a cell viability assay.

KINGS-1 = format: functional, cell-based;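 further: cell viability assay measuring suppression of KINGS-1 cell growth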
Description: SANGER: Inhibition of human KINGS-1 cell growth in a cell viability assay.

KLE = format: functional, cell-based;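 further: growth inhibition of human KLE cells, read out with a cell viability assay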
Description: SANGER: Inhibition of human KLE cell growth in a cell viability assay.

KNS-42 = format: functional, cell-based;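 further: growth inhibition of KNS-42 cells, read out with a cell viability assay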
Description: SANGER: Inhibition of human KNS-42 cell growth in a cell viability assay.

KP-N-YS = format: functional, cell-based;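 further: cell viability assay measuring inhibition of cell line growth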
Description: SANGER: Inhibition of human KP-N-YS cell growth in a cell viability assay.

KU812 cell line = format: functional, cell-based;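 further: growth inhibition of KU812 cells, read out with a cell viability assay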
Description: SANGER: Inhibition of human KU812 cell growth in a cell viability assay.

KURAMOCHI = format: functional, cell-based;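 further: growth inhibition of KURAMOCHI cells, read out with a cell viability assay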
Description: SANGER: Inhibition of human KURAMOCHI cell growth in a cell viability assay.

LC-2-ad = format: functional, cell-based;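 further: growth inhibition of human LC-2-ad cells, read out with a cell viability assay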
Description: SANGER: Inhibition of human LC-2-ad cell growth in a cell viability assay.

LOX IMVI = format: functional, cell-based
Description: SANGER: Inhibition of human LOXIMVI cell growth in a cell viability assay.

LU-139 = format: functional, cell-based
Description: SANGER: Inhibition of human LU-139 cell growth in a cell viability assay.

Lu-65 = format: functional, cell-based;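 further: growth inhibition of Lu-65 cancer cells, read out by a cell viability assay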
Description: SANGER: Inhibition of human LU-65 cell growth in a cell viability assay.

MEG-01 = format: functional, cell-based;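 further: growth inhibition of MEG-01 cells, read out by a cell viability assay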
Description: SANGER: Inhibition of human MEG-01 cell growth in a cell viability assay.

MFM-223 = format: functional, cell-based
Description: SANGER: Inhibition of human MFM-223 cell growth in a cell viability assay.

MN-60 = format: functional, cell-based;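 further: growth inhibition of the MN-60 cell line, determined with a cell viability assay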
Description: SANGER: Inhibition of human MN-60 cell growth in a cell viability assay.

MPP-89 = format: functional, cell-based;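 further: growth inhibition of human MPP-89 cells, read out with a cell viability assay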
Description: SANGER: Inhibition of human MPP-89 cell growth in a cell viability assay.

MS-1 = format: functional, cell-based;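 further: growth inhibition of MS-1 cells, read out by cell viability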
Description: SANGER: Inhibition of human MS-1 cell growth in a cell viability assay.

MSTO-211H = format: functional, cell-based
Description: SANGER: Inhibition of human MSTO-211H cell growth in a cell viability assay.

MZ1-PC = format: functional, cell-based;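 further: cell viability assay measuring growth inhibition of human MZ1-PC cells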
Description: SANGER: Inhibition of human MZ1-PC cell growth in a cell viability assay.

Mo = format: functional, cell-based
Description: SANGER: Inhibition of human Mo-T cell growth in a cell viability assay.

NB10 = format: functional, cell-based;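 further: growth inhibition of NB10 cells, read out by a cell viability assay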
Description: SANGER: Inhibition of human NB10 cell growth in a cell viability assay.

NB5 = format: functional, cell-based;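 further: growth inhibition of NB5 cells, read out as cell viability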
Description: SANGER: Inhibition of human NB5 cell growth in a cell viability assay.

NCI-H1092 = format: functional, cell-based;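 further: cell growth inhibition measured with a cell viability assay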
Description: SANGER: Inhibition of human NCI-H1092 cell growth in a cell viability assay.

NCI-H1648 = format: functional, cell-based;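 further: cell viability assay measuring inhibition of NCI-H1648 cell growth, from the Sanger screening data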
Description: SANGER: Inhibition of human NCI-H1648 cell growth in a cell viability assay.

NCI-H1770 = format: functional, cell-based;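 further: growth inhibition of NCI-H1770 cells determined with a viability readout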
Description: SANGER: Inhibition of human NCI-H1770 cell growth in a cell viability assay.

NCI-H226 = format: functional, cell-based;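 further: cell viability read-out used to gauge growth inhibition of the cells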
Description: SANGER: Inhibition of human NCI-H226 cell growth in a cell viability assay.

NCI-H23 = format: functional, cell-based;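 further: cell viability assay measuring growth inhibition of NCI-H23 cells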
Description: SANGER: Inhibition of human NCI-H23 cell growth in a cell viability assay.

NCI-H510A = format: functional, cell-based;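 further: growth inhibition of NCI-H510A cells, read out with a cell viability assay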
Description: SANGER: Inhibition of human NCI-H510A cell growth in a cell viability assay.

SNU1 = format: functional, cell-based;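 further: growth inhibition of human NCI-SNU-1 cells, measured with a cell viability assay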
Description: SANGER: Inhibition of human NCI-SNU-1 cell growth in a cell viability assay.

NEC8 = format: functional, cell-based;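 further: growth inhibition of human NEC8 cells, read out by a cell viability assay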
Description: SANGER: Inhibition of human NEC8 cell growth in a cell viability assay.

NH-12 = format: functional, cell-based;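 further: growth inhibition of NH-12 cells, read out with a cell viability assay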
Description: SANGER: Inhibition of human NH-12 cell growth in a cell viability assay.

NOS-1 = format: functional, cell-based;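 further: growth inhibition of the human NOS-1 cell line, read out with a cell viability assay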
Description: SANGER: Inhibition of human NOS-1 cell growth in a cell viability assay.

NTERA-2-cl-D1 = format: functional, cell-based;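 further: inhibition of cell growth, measured with a cell viability assay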
Description: SANGER: Inhibition of human NTERA-S-cl-D1 cell growth in a cell viability assay.

OCUB-M = format: functional, cell-based;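 further: growth inhibition of the cancer cell line, read out through a cell viability assay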
Description: SANGER: Inhibition of human OCUB-M cell growth in a cell viability assay.

RH-1 = format: functional, cell-based;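 further: growth inhibition of human RH-1 cells, read out with a cell viability assay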
Description: SANGER: Inhibition of human RH-1 cell growth in a cell viability assay.

SCC-15 = format: functional, cell-based;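 further: growth inhibition of SCC-15 cells, read out with a cell viability assay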
Description: SANGER: Inhibition of human SCC-15 cell growth in a cell viability assay.

SNB-75 = format: functional, cell-based;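 further: cell viability assay measuring growth inhibition of human SNB-75 cells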
Description: SANGER: Inhibition of human SNB75 cell growth in a cell viability assay.

SW684 = format: functional, cell-based;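 further: growth inhibition of human SW684 cells, measured by a cell viability assay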
Description: SANGER: Inhibition of human SW684 cell growth in a cell viability assay.

SW 954 = format: functional, cell-based;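 further: growth inhibition of SW954 human cancer cells, read out as cell viability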
Description: SANGER: Inhibition of human SW954 cell growth in a cell viability assay.

SW982 = format: functional, cell-based;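 further: growth inhibition of SW982 cells, read out with a cell viability assay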
Description: SANGER: Inhibition of human SW982 cell growth in a cell viability assay.

TE-1 = format: functional, cell-based
Description: SANGER: Inhibition of human TE-1 cell growth in a cell viability assay.

8-MG-BA = format: functional, cell-based;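 further: growth inhibition of 8-MG-BA cells, read out with a cell viability assay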
Description: SANGER: Inhibition of human 8-MG-BA cell growth in a cell viability assay.

ALL-PO = format: functional, cell-based;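 further: growth inhibition of ALL-PO cells, read out by a cell viability assay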
Description: SANGER: Inhibition of human ALL-PO cell growth in a cell viability assay.

AM-38 = format: functional, cell-based;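 further: growth inhibition of AM-38 cells of human origin, read out by a cell viability assay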
Description: SANGER: Inhibition of human AM-38 cell growth in a cell viability assay.

TE-11 = format: functional, cell-based;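 further: growth inhibition of human TE-11 cells, read out by a cell viability assay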
Description: SANGER: Inhibition of human TE-11 cell growth in a cell viability assay.

TE-12 = format: functional, cell-based;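 further: growth inhibition of TE-12 cells, read out by a cell viability assay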
Description: SANGER: Inhibition of human TE-12 cell growth in a cell viability assay.

TE-9 = format: functional, cell-based;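 further: cell growth inhibition, measured with a cell viability readout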
Description: SANGER: Inhibition of human TE-9 cell growth in a cell viability assay.

TK-10 = format: functional, cell-based;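 further: growth inhibition of TK-10 cells, read out in a cell viability assay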
Description: SANGER: Inhibition of human TK10 cell growth in a cell viability assay.

U-266 = format: functional, cell-based
Description: SANGER: Inhibition of human U-266 cell growth in a cell viability assay.

U-87 MG = format: functional, cell-based, U-87MG ATCC
Description: SANGER: Inhibition of human U-87-MG cell growth in a cell viability assay.

UACC-257 = format: functional, cell-based
Description: SANGER: Inhibition of human UACC-257 cell growth in a cell viability assay.

no-11 = format: functional, cell-based
Description: SANGER: Inhibition of human no-11 cell growth in a cell viability assay.

CAS-1 = format: functional, cell-based
Description: SANGER: Inhibition of human CAS-1 cell growth in a cell viability assay.

CGTH-W-1 = format: functional, cell-based
Description: SANGER: Inhibition of human CGTH-W-1 cell growth in a cell viability assay.

COLO-684 = format: functional, cell-based
Description: SANGER: Inhibition of human COLO-684 cell growth in a cell viability assay.

CCNc1cc(N[C@H]2CC[C@@H](O)CC2)nc(Nc2ccc3c(ccn3Cc3ccccc3)c2)n1
IC50 (COLO-824): > 5.12 µM
IC50 (CP66-MEL): > 5.12 µM
IC50 (CTV-1): > 5.12 µM
IC50 (CW-2): > 5.12 µM
IC50 (D283 Med): > 5.12 µM
IC50 (DB): > 5.12 µM
IC50 (DEL): > 5.12 µM
IC50 (DMS-79): > 5.12 µM
IC50 (GAK): > 5.12 µM
IC50 (GI-ME-N): > 5.12 µM
IC50 (HEL): > 5.12 µM
IC50 (HH): > 5.12 µM
IC50 (KALS-1): > 5.12 µM
IC50 (KINGS-1): > 5.12 µM
IC50 (KLE): > 5.12 µM
IC50 (KNS-42): > 5.12 µM
IC50 (KP-N-YS): > 5.12 µM
IC50 (KU812 cell line): > 5.12 µM
IC50 (KURAMOCHI): > 5.12 µM
IC50 (LC-2-ad): 0.702 µM
IC50 (LOX IMVI): > 5.12 µM
IC50 (LU-139): > 5.12 µM
IC50 (Lu-65): > 5.12 µM
IC50 (MEG-01): > 5.12 µM
IC50 (MFM-223): > 5.12 µM
IC50 (MN-60): > 5.12 µM
IC50 (MPP-89): > 5.12 µM
IC50 (MS-1): > 5.12 µM
IC50 (MSTO-211H): > 5.12 µM
IC50 (MZ1-PC): > 5.12 µM
IC50 (Mo): > 5.12 µM
IC50 (NB10): > 5.12 µM
IC50 (NB5): > 5.12 µM
IC50 (NCI-H1092): > 5.12 µM
IC50 (NCI-H1648): > 5.12 µM
IC50 (NCI-H1770): 5.08 µM
IC50 (NCI-H226): > 5.12 µM
IC50 (NCI-H23): > 5.12 µM
IC50 (NCI-H510A): > 5.12 µM
IC50 (SNU1): > 5.12 µM
IC50 (NEC8): > 5.12 µM
IC50 (NH-12): > 5.12 µM
IC50 (NOS-1): 3.26 µM
IC50 (NTERA-2-cl-D1): > 5.12 µM
IC50 (OCUB-M): > 5.12 µM
IC50 (RH-1): > 5.12 µM
IC50 (SCC-15): > 5.12 µM
IC50 (SNB-75): > 5.12 µM
IC50 (SW684): > 5.12 µM
IC50 (SW 954): > 5.12 µM
IC50 (SW982): > 5.12 µM
IC50 (TE-1): > 5.12 µM
IC50 (8-MG-BA): > 5.12 µM
IC50 (ALL-PO): > 5.12 µM
IC50 (AM-38): > 5.12 µM
IC50 (TE-11): > 5.12 µM
IC50 (TE-12): 5.05 µM
IC50 (TE-9): > 5.12 µM
IC50 (TK-10): > 5.12 µM
IC50 (U-266): > 5.12 µM
IC50 (U-87 MG): > 5.12 µM
IC50 (UACC-257): > 5.12 µM
IC50 (no-11): > 5.12 µM
IC50 (CAS-1): > 5.12 µM
IC50 (CGTH-W-1): > 5.12 µM
IC50 (COLO-684): > 5.12 µM

COc1cc(C)c(Sc2cnc(NC(=O)c3ccc(CNC(C)C(C)(C)C)cc3)s2)cc1C(=O)N1CCN(C(C)=O)CC1 (configuration not stated)
IC50 (COLO-824): > 10.2 µM
IC50 (CP66-MEL): > 10.2 µM
IC50 (CTV-1): 6.3 µM
IC50 (CW-2): > 10.2 µM
IC50 (D283 Med): > 10.2 µM
IC50 (DB): > 10.2 µM
IC50 (DEL): > 10.2 µM
IC50 (DMS-79): > 10.2 µM
IC50 (GAK): > 10.2 µM
IC50 (GI-ME-N): 4.3 µM
IC50 (HEL): > 10.2 µM
IC50 (HH): > 10.2 µM
IC50 (KALS-1): > 10.2 µM
IC50 (KINGS-1): > 10.2 µM
IC50 (KLE): > 10.2 µM
IC50 (KNS-42): > 10.2 µM
IC50 (KP-N-YS): > 10.2 µM
IC50 (KU812 cell line): 8.97 µM
IC50 (KURAMOCHI): > 10.2 µM
IC50 (LC-2-ad): 9.39 µM
IC50 (LOX IMVI): > 10.2 µM
IC50 (LU-139): > 10.2 µM
IC50 (Lu-65): > 10.2 µM
IC50 (MEG-01): > 10.2 µM
IC50 (MFM-223): > 10.2 µM
IC50 (MN-60): > 10.2 µM
IC50 (MPP-89): > 10.2 µM
IC50 (MS-1): > 10.2 µM
IC50 (MSTO-211H): > 10.2 µM
IC50 (MZ1-PC): 3.76 µM
IC50 (Mo): > 10.2 µM
IC50 (NB10): > 10.2 µM
IC50 (NB5): > 10.2 µM
IC50 (NCI-H1092): > 10.2 µM
IC50 (NCI-H1648): > 10.2 µM
IC50 (NCI-H1770): > 10.2 µM
IC50 (NCI-H226): > 10.2 µM
IC50 (NCI-H23): > 10.2 µM
IC50 (NCI-H510A): > 10.2 µM
IC50 (SNU1): > 10.2 µM
IC50 (NEC8): > 10.2 µM
IC50 (NH-12): > 10.2 µM
IC50 (NOS-1): 1.3 µM
IC50 (NTERA-2-cl-D1): 8.79 µM
IC50 (OCUB-M): > 10.2 µM
IC50 (RH-1): > 10.2 µM
IC50 (SCC-15): > 10.2 µM
IC50 (SNB-75): 7.11 µM
IC50 (SW684): > 10.2 µM
IC50 (SW 954): 7.79 µM
IC50 (SW982): 2.91 µM
IC50 (TE-1): > 10.2 µM
IC50 (8-MG-BA): > 10.2 µM
IC50 (ALL-PO): > 10.2 µM
IC50 (AM-38): > 10.2 µM
IC50 (TE-11): > 10.2 µM
IC50 (TE-12): 2.42 µM
IC50 (TE-9): > 10.2 µM
IC50 (TK-10): > 10.2 µM
IC50 (U-266): > 10.2 µM
IC50 (U-87 MG): > 10.2 µM
IC50 (UACC-257): > 10.2 µM
IC50 (no-11): > 10.2 µM
IC50 (CAS-1): > 10.2 µM
IC50 (CGTH-W-1): > 10.2 µM
IC50 (COLO-684): > 10.2 µM
